Here are results for six compounds from PubChem BioAssay (NCI).

Test systems include EKVX NSCLC; HS 578T breast; HT29 colon; HCT-15 colon; A498 renal; SK-MEL-5 melanoma; MDA-MB-435; HL-60(TB) leukemia; SK-OV-3 ovarian; ACHN renal.
Holding throughout (assay): NCI anticancer screen, dose series, 48 h

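Method: 48-hour compound exposure of cells in 96-well plates, five concentrations, linear interpolation of endpoints. At the GI50, growth is halved. TGI: total growth inhibition.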 Some results are limits rather than exact numbers.

With `COc1ccc(S(=O)(=O)N2CCNCC2)cc1OC`, the GI50 in the assay on EKVX NSCLC, in the assay with HS 578T breast, with HT29 colon, in the assay on HCT-15 colon, in the assay on A498 renal and in the assay with SK-MEL-5 melanoma was greater than 100 µM throughout. For the same compound, the GI50 with MDA-MB-435, with HL-60(TB) leukemia, in the assay with SK-OV-3 ovarian and in the assay with ACHN renal was greater than 100 µM each time. The TGI in the assay with EKVX NSCLC, in the assay with HS 578T breast, in the assay with HT29 colon, with HCT-15 colon, with A498 renal and in the assay with SK-MEL-5 melanoma was greater than 100 µM each time. The TGI with MDA-MB-435, with HL-60(TB) leukemia, in the assay with SK-OV-3 ovarian and in the assay with ACHN renal was greater than 100 µM each time.

Turning to `CN1CCCC1c1cccnc1.O=C(O)c1ccccc1O.O=C([O-])c1ccccc1[OH2+].O=C([O-])c1ccccc1[OH2+].[Mn+2]` (stereo not given), the GI50 was greater than 100 µM in the assay on EKVX NSCLC; greater than 100 µM in the assay on HS 578T breast; 98 µM in the assay on HT29 colon; greater than 100 µM with HCT-15 colon; greater than 100 µM with A498 renal; greater than 100 µM with SK-MEL-5 melanoma. Besides, the GI50 in the assay with MDA-MB-435, in the assay on HL-60(TB) leukemia, with SK-OV-3 ovarian and with ACHN renal was greater than 100 µM in each case. Further, the TGI in the assay with EKVX NSCLC, in the assay with HS 578T breast, with HT29 colon, in the assay with HCT-15 colon, with A498 renal and in the assay on SK-MEL-5 melanoma was greater than 100 µM throughout. Also, the TGI with MDA-MB-435, in the assay with HL-60(TB) leukemia, with SK-OV-3 ovarian and in the assay on ACHN renal was greater than 100 µM each time.

Consider `COC(=O)c1cc([N+](=O)[O-])cc([N+](=O)[O-])c1Cl`, for which the GI50 in the assay on EKVX NSCLC is 14.1 µM; in the assay on HS 578T breast, 2.28 µM; in the assay with HT29 colon, 1.88 µM; in the assay with HCT-15 colon it was 2.19 µM; with A498 renal it was 17 µM; in the assay with SK-MEL-5 melanoma, 3.03 µM. Moreover, the GI50 was 1.89 µM with MDA-MB-435, 3.98 µM with HL-60(TB) leukemia, 17.5 µM in the assay with SK-OV-3 ovarian and 1.76 µM with ACHN renal. Moreover, the TGI stood at 28.8 µM with EKVX NSCLC; 5.86 µM in the assay on HS 578T breast; 3.49 µM in the assay with HT29 colon; 5.44 µM in the assay with HCT-15 colon; 30.7 µM in the assay on A498 renal; 10.9 µM in the assay with SK-MEL-5 melanoma. The TGI came to 3.64 µM with MDA-MB-435, 27.5 µM with HL-60(TB) leukemia, 31.3 µM with SK-OV-3 ovarian and 3.21 µM with ACHN renal.

In the case of `COc1ccc(/C=N\Nc2nc(SCC(C)C)nc(-c3ccc(OC)cc3)c2C#N)cc1`, the GI50 in the assay on EKVX NSCLC is 12.4 µM; with HS 578T breast, 3.98 µM; with HT29 colon it was 3.19 µM; in the assay with HCT-15 colon, 11.7 µM; in the assay on A498 renal it was 2.49 µM; with SK-MEL-5 melanoma it was 13.6 µM. For the same compound, the GI50 in the assay with MDA-MB-435 was 17.9 µM; in the assay on HL-60(TB) leukemia, greater than 100 µM; in the assay on SK-OV-3 ovarian, 1.46 µM; in the assay on ACHN renal, 0.71 µM. In addition, the TGI in the assay with EKVX NSCLC is 86.9 µM; with HS 578T breast, 30.9 µM; in the assay on HT29 colon it was 20.1 µM; in the assay with HCT-15 colon it was greater than 100 µM; in the assay on A498 renal, 7.14 µM; in the assay on SK-MEL-5 melanoma, 51.2 µM. For the same compound, the TGI with MDA-MB-435 is greater than 100 µM; in the assay with HL-60(TB) leukemia, greater than 100 µM; in the assay with SK-OV-3 ovarian it was 14.6 µM; in the assay with ACHN renal, 2.37 µM.

For `O=S(=O)(NCCCNc1cc(-c2cn(-c3ccccc3)nc2-c2cccc(O)c2)ccn1)c1ccc(F)cc1`, the GI50 in the assay on EKVX NSCLC was 3.92 µM; in the assay on HS 578T breast, 2.71 µM; with HT29 colon it was 2.26 µM; with HCT-15 colon, 2.45 µM; in the assay with A498 renal, 2.49 µM; in the assay on SK-MEL-5 melanoma it was 3.06 µM. The GI50 with MDA-MB-435 was 3.36 µM; with HL-60(TB) leukemia it was 2.2 µM; with SK-OV-3 ovarian, 4.44 µM; in the assay with ACHN renal, 3.52 µM. The TGI in the assay with EKVX NSCLC came out at 64.4 µM; in the assay on HS 578T breast it was 9.22 µM; in the assay on HT29 colon, 6.5 µM; with HCT-15 colon, 7.9 µM; with A498 renal, 9.81 µM; in the assay with SK-MEL-5 melanoma, 10.1 µM. The TGI in the assay with MDA-MB-435 worked out at 12.9 µM; with HL-60(TB) leukemia, 5.85 µM; in the assay with SK-OV-3 ovarian, 23.5 µM; in the assay on ACHN renal it was 33.8 µM.

For `CC1CCN(CCOc2ccc(CNc3ccc4nc(CCC5CCCCC5)[nH]c4c3)cc2)CC1`, the GI50 with EKVX NSCLC was 1.62 µM; in the assay on HS 578T breast it was 1.67 µM; with HT29 colon, 1.15 µM; in the assay with HCT-15 colon, 1.43 µM; in the assay on A498 renal, 1.77 µM; in the assay on SK-MEL-5 melanoma it was 1.7 µM. Besides, the GI50 with MDA-MB-435 is 1.64 µM; in the assay on HL-60(TB) leukemia, 1.83 µM; in the assay with SK-OV-3 ovarian, 1.81 µM; in the assay on ACHN renal, 1.76 µM. Moreover, the TGI in the assay on EKVX NSCLC was 3.18 µM; in the assay with HS 578T breast it was 4.06 µM; in the assay with HT29 colon, 2.81 µM; with HCT-15 colon it was 3.03 µM; in the assay with A498 renal, 3.7 µM; in the assay with SK-MEL-5 melanoma it was 3.08 µM. Moreover, the TGI in the assay with MDA-MB-435 is 3.07 µM; with HL-60(TB) leukemia it was 3.99 µM; in the assay on SK-OV-3 ovarian, 3.4 µM; in the assay with ACHN renal, 3.22 µM.
